Source: ChEMBL document CHEMBL1201862, “PubChem BioAssay data set” (2004)
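Following 48 hours of exposure in 96-well plates, responses at five concentrations were used to interpolate endpoints linearly. GI50 is the concentration that inhibits growth by half.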 Calls of active or inactive are those of the source. No stated cut-off is given here; in the data, active = GI50 up to about 1.1 µM and inactive = higher. Residues, ends and D or L forms follow the SMILES beside them. *: point of attachment. Boc = CC(C)(C)OC(=O)*; OBn = c1ccc(CO*)cc1; Bn = c1ccc(C*)cc1

How the values were obtained:
Test in all cases: NCI anticancer screen, dose series, 48 h
CCRF-CEM = system: CCRF-CEM
HCT-116 = system: HCT-116
HL-60 = system: HL-60
HOP-62 = system: HOP-62
HT-29 = system: HT-29
IGROV-1 = system: IGROV-1
LOX IMVI = system: LOX IMVI
MDA-MB-435 = system: MDA-MB-435
NCI-H23 = system: NCI-H23
OVCAR-3 = system: OVCAR-3
PC-3 = system: PC-3
SF-268 = system: SF-268
SF-295 = system: SF-295
SF-539 = system: SF-539
SNB-19 = system: SNB-19
SNB-75 = system: SNB-75
SW-620 = system: SW-620
UACC-62 = system: UACC-62
UO-31 = system: UO-31
BT-549 = system: BT-549

| Structure (SMILES) | GI50 (CCRF-CEM) | GI50 (HCT-116) | GI50 (HL-60) | GI50 (HOP-62) | GI50 (HT-29) | GI50 (IGROV-1) | GI50 (LOX IMVI) | GI50 (MDA-MB-435) | GI50 (NCI-H23) | GI50 (OVCAR-3) | GI50 (PC-3) | GI50 (SF-268) | GI50 (SF-295) | GI50 (SF-539) | GI50 (SNB-19) | GI50 (SNB-75) | GI50 (SW-620) | GI50 (UACC-62) | GI50 (UO-31) | GI50 (BT-549) |
| --- | --- | --- | --- | --- | --- | --- | --- | --- | --- | --- | --- | --- | --- | --- | --- | --- | --- | --- | --- | --- |
| C1CCC2C(C1)CCCC2NC1=NCCO1 (centres undefined) | > 100 µM (inactive) | > 100 µM (inactive) | > 100 µM (inactive) | > 100 µM (inactive) | 35.7 µM (inactive) | > 100 µM (inactive) | > 100 µM (inactive) | > 100 µM (inactive) | > 100 µM (inactive) | > 100 µM (inactive) | 93.5 µM (inactive) | > 100 µM (inactive) | > 100 µM (inactive) | > 100 µM (inactive) | > 100 µM (inactive) | 72.8 µM (inactive) | > 100 µM (inactive) | > 100 µM (inactive) | > 100 µM (inactive) | – |
| N#CC(c1nc2ccccc2s1)c1ncnc(Cl)c1[N+](=O)[O-] (centres undefined) | 0.361 µM (active) | 12.6 µM (inactive) | – | 28.8 µM (inactive) | 17.4 µM (inactive) | 14.6 µM (inactive) | 17.3 µM (inactive) | 29.2 µM (inactive) | 16.5 µM (inactive) | 20.1 µM (inactive) | – | 17.5 µM (inactive) | > 100 µM (inactive) | 30.3 µM (inactive) | 32.1 µM (inactive) | 22.9 µM (inactive) | 19.3 µM (inactive) | – | 27.9 µM (inactive) | 22.9 µM (inactive) |
| CCN(CC)Cc1ccccc1CC(=O)N1c2ccccc2C(=O)Nc2cccnc21 | 33.7 µM (inactive) | 38.8 µM (inactive) | 46 µM (inactive) | 64 µM (inactive) | > 100 µM (inactive) | > 100 µM (inactive) | > 100 µM (inactive) | > 100 µM (inactive) | > 100 µM (inactive) | > 100 µM (inactive) | > 100 µM (inactive) | > 100 µM (inactive) | > 100 µM (inactive) | > 100 µM (inactive) | > 100 µM (inactive) | – | > 100 µM (inactive) | > 100 µM (inactive) | – | – |
| O=C(O)CCCNc1ncc2c(n1)-c1ccccc1OC2 | > 100 µM (inactive) | > 100 µM (inactive) | 30.1 µM (inactive) | > 100 µM (inactive) | > 100 µM (inactive) | 47.8 µM (inactive) | > 100 µM (inactive) | > 100 µM (inactive) | 77.4 µM (inactive) | > 100 µM (inactive) | > 100 µM (inactive) | > 100 µM (inactive) | > 100 µM (inactive) | > 100 µM (inactive) | > 100 µM (inactive) | 33.8 µM (inactive) | > 100 µM (inactive) | > 100 µM (inactive) | 68.2 µM (inactive) | – |
| CC(C)CC(NC(=O)C(Cc1ccccc1)NC(=O)C(COCc1ccccc1)NC(=O)OC(C)(C)C)C(=O)OCc1ccccc1 (stereo not drawn) (Boc-Ser(Bn)-Phe-Leu-OBn; configuration not given here) | 26.2 µM (inactive) | 18.5 µM (inactive) | 4.01 µM (inactive) | 49.4 µM (inactive) | 15.9 µM (inactive) | 17.4 µM (inactive) | 19.8 µM (inactive) | > 10 µM (inactive) | 18.5 µM (inactive) | 20 µM (inactive) | 22.3 µM (inactive) | 21.7 µM (inactive) | 21.8 µM (inactive) | 33.9 µM (inactive) | > 100 µM (inactive) | 22.1 µM (inactive) | 22.1 µM (inactive) | 17.5 µM (inactive) | 39.5 µM (inactive) | – |
| CC(C)[C@@H]1NC(=O)[C@@H]2N=C(O[C@H]2C)[C@H](C(C)C)NC(=O)C2N=C1O[C@H]2C | > 100 µM (inactive) | > 100 µM (inactive) | > 100 µM (inactive) | > 100 µM (inactive) | > 100 µM (inactive) | > 100 µM (inactive) | > 100 µM (inactive) | > 100 µM (inactive) | > 100 µM (inactive) | > 100 µM (inactive) | > 100 µM (inactive) | > 100 µM (inactive) | > 100 µM (inactive) | > 100 µM (inactive) | > 100 µM (inactive) | > 100 µM (inactive) | > 100 µM (inactive) | > 100 µM (inactive) | > 100 µM (inactive) | – |
| C[C@@H]1C(O)CC[C@H](C)C12CC=CC2=O (some centres undefined) | – | > 100 µM (inactive) | > 100 µM (inactive) | > 100 µM (inactive) | > 100 µM (inactive) | > 100 µM (inactive) | > 100 µM (inactive) | > 100 µM (inactive) | > 100 µM (inactive) | > 100 µM (inactive) | > 100 µM (inactive) | > 100 µM (inactive) | > 100 µM (inactive) | > 100 µM (inactive) | > 100 µM (inactive) | – | > 100 µM (inactive) | > 100 µM (inactive) | > 100 µM (inactive) | – |
| CC#Cc1ccc(-c2ccccc2)s1 | > 100 µM (inactive) | > 100 µM (inactive) | > 100 µM (inactive) | – | > 100 µM (inactive) | > 100 µM (inactive) | > 100 µM (inactive) | > 100 µM (inactive) | 68.9 µM (inactive) | > 100 µM (inactive) | > 100 µM (inactive) | > 100 µM (inactive) | > 100 µM (inactive) | > 100 µM (inactive) | > 100 µM (inactive) | > 100 µM (inactive) | > 100 µM (inactive) | > 100 µM (inactive) | > 100 µM (inactive) | – |
| COc1ccc(CC2NC(=O)/C=C/CC(C(C)C3OC3c3ccccc3)OC(=O)C(CC(C)C)OC(=O)C(C)CNC2=O)cc1Cl (centres undefined) | < 1e-05 µM (active) | < 1e-05 µM (active) | < 1e-05 µM (active) | 1.76e-05 µM (active) | < 1e-05 µM (active) | 2.36e-05 µM (active) | < 1e-05 µM (active) | < 1e-05 µM (active) | 2.07e-05 µM (active) | < 1e-05 µM (active) | 1.04e-05 µM (active) | 4.55e-05 µM (active) | 1.34e-05 µM (active) | 1.34e-05 µM (active) | – | 2.83e-05 µM (active) | 1.36e-05 µM (active) | 1.1e-05 µM (active) | – | – |
| COc1cc(C2c3cc4c(cc3[C@@H](Nc3ccc5c(c3)OCCO5)C3COC(=O)[C@H]23)OCO4)cc(OC)c1O (some centres undefined) | 0.138 µM (active) | 0.194 µM (active) | 0.105 µM (active) | 0.22 µM (active) | 0.555 µM (active) | 0.906 µM (active) | 0.587 µM (active) | – | 0.207 µM (active) | 0.959 µM (active) | 0.918 µM (active) | 0.771 µM (active) | 0.301 µM (active) | 0.435 µM (active) | 1.04 µM (active) | 0.581 µM (active) | 0.586 µM (active) | 0.257 µM (active) | 0.499 µM (active) | 3.9 µM (inactive) |
| O=C(c1ccc(Cl)cc1)N(C(=S)N1CCN(c2ccccc2)CC1)c1ccccc1 | > 100 µM (inactive) | > 100 µM (inactive) | > 100 µM (inactive) | > 100 µM (inactive) | > 100 µM (inactive) | > 100 µM (inactive) | > 100 µM (inactive) | – | > 100 µM (inactive) | > 100 µM (inactive) | – | > 100 µM (inactive) | > 100 µM (inactive) | > 100 µM (inactive) | > 100 µM (inactive) | > 100 µM (inactive) | > 100 µM (inactive) | > 100 µM (inactive) | > 100 µM (inactive) | – |
| COc1cc(Br)c(/C=N\c2cccc3cc(OC)c(OC)cc23)cc1OC | 17.8 µM (inactive) | 34.3 µM (inactive) | 11.3 µM (inactive) | > 100 µM (inactive) | 31.9 µM (inactive) | 61.2 µM (inactive) | 35.3 µM (inactive) | – | 39.7 µM (inactive) | 23.5 µM (inactive) | – | 45.4 µM (inactive) | 25.9 µM (inactive) | 22.1 µM (inactive) | > 100 µM (inactive) | 16.8 µM (inactive) | 35.6 µM (inactive) | 26 µM (inactive) | 27.9 µM (inactive) | – |
| CCCCCCCCCc1c(Cl)nc(Cl)nc1Cl | 2.17 µM (inactive) | 14.5 µM (inactive) | 5.05 µM (inactive) | 22.5 µM (inactive) | 17.5 µM (inactive) | 13.2 µM (inactive) | 1.95 µM (inactive) | 13.5 µM (inactive) | 9.62 µM (inactive) | 17.9 µM (inactive) | 15.7 µM (inactive) | 18.7 µM (inactive) | 20.7 µM (inactive) | 18.2 µM (inactive) | 16.2 µM (inactive) | 15 µM (inactive) | 10.1 µM (inactive) | 20 µM (inactive) | 18.3 µM (inactive) | – |
| S=C=NC1CCC(c2cc3ccccc3s2)(N2CCCCC2)CC1 (centres undefined) | 0.577 µM (active) | 1.82 µM (inactive) | 1.31 µM (inactive) | 2.07 µM (inactive) | 1.77 µM (inactive) | – | 1.64 µM (inactive) | 1.62 µM (inactive) | 1.92 µM (inactive) | 2.09 µM (inactive) | – | 2.08 µM (inactive) | 2.58 µM (inactive) | 1.95 µM (inactive) | 2.79 µM (inactive) | 1.87 µM (inactive) | 2.02 µM (inactive) | 1.76 µM (inactive) | 2.19 µM (inactive) | 2.09 µM (inactive) |
| CSc1ccc2c(cc1=O)C(NC(=O)c1cc(O)c(OC(=O)O)c(O)c1)CCc1cc(O)c(O)c(O)c1-2 (centres undefined) | 11.9 µM (inactive) | 16.5 µM (inactive) | 10 µM (inactive) | 19 µM (inactive) | 20 µM (inactive) | 19.7 µM (inactive) | 12.9 µM (inactive) | – | 19.2 µM (inactive) | 18.2 µM (inactive) | – | 19.8 µM (inactive) | 17.4 µM (inactive) | 26.5 µM (inactive) | 50.9 µM (inactive) | 32.7 µM (inactive) | 14 µM (inactive) | 14.7 µM (inactive) | 15.3 µM (inactive) | – |
